US11427606B2, “Azithromycin derivatives containing a phosphonium ion as anticancer agents” (Rising Tide Foundation, priority 2017, dated 2022)

Test system: MDA-231 cancer cells
Test: Inhibition of proliferation assay: cell confluence (IncuCyte imaging)
Type: cell-based
Conditions: compound at 10 uM; MDA-231 cells; IncuCyte images every 3 h over 4-5 d; relative confluence normalised to time zero
Description: Inhibition of Proliferation Assay
The confluence value is a surrogate for cell proliferation and growth. The value is expressed as a percent confluence, which represents the fraction of culture dish-surface that is occupied by cells. As the number of cells in the dish increases over time due to proliferation, so will their coverage of that surface increase. Expansion of the cell population on the cell culture-dish surface and confluence have mostly a linear relationship until the cells on the plate surface begin to reach saturation or maximum density.
Confluence is determined based on image analysis. Image based software can identify objects in the image field base on changes to pixel density in a grey scale image. The software can then assign a mask to those pixels within the object. Objects can be ‘gated’ out based on size and shape. To determine cell confluence, images of cells are first masked as objects. The surface area of the image that is masked is measured and compared to the total surface area of the culture dish surface to obtain a percent confluence.
MDA-231 cancer cells were obtained from ATCC. Cells were cultured in Dulbecco's Modified Eagle Medium (DMEM) supplemented with 10% Fetal Bovine Serum (FBS), 2 mM Glutamax, 1 mM Non Essential Amino Acid (NEAA) solution and 1 mM sodium pyruvate. […] Final DMSO concentrations were […]. Images were acquired with an IncuCyte Live Cell Imaging microscopy (Essen Bioscience) at every 3 h under cell culture conditions with 10× objective over 4-5 d. Cell confluence was calculated from one field of view per well using the IncuCyte in-built algorithm. Relative confluence values were obtained by normalising each value to the time zero value in each sample.

| Compound | % Confluence [%] |
| --- | --- |
| CC[C@H]1OC(=O)[C@H](C)[C@@H](O[C@H]2C[C@@](C)(OC)[C@@H](O)[C@H](C)O2)[C@H](C)[C@@H](O[C@@H]2O[C@H](C)C[C@H](N(C)C)[C@H]2O)[C@](C)(O)C[C@@H](C)CN(CCCCCCCC[P+](c2ccccc2)(c2ccccc2)c2ccc(N(C)C)cc2)[C@H](C)[C@@H](O)[C@]1(C)O.[I-] [Example 12] | 4.1 |
| CC[C@H]1OC(=O)[C@H](C)[C@@H](O)[C@H](C)[C@@H](O[C@@H]2O[C@H](C)C[C@H](N(C)C)[C@H]2O)[C@](C)(O)C[C@@H](C)CN(CCCCCCCC[P+](c2ccc(OC)cc2)(c2ccc(OC)cc2)c2ccc(OC)cc2)[C@H](C)[C@@H](O)[C@]1(C)O [Example 20] | 14.8 |
| tris(4-chlorophenyl)({8-[(2R,3S,4R,5R,8R,10R,11R,12S,13S,14R)-11-{[(2S,3R,4S,6R)-4-(dimethylamino)-3-hydroxy-6-methyloxan-2-yl]oxy}-2-ethyl-3,4,10-trihydroxy-13-{[(2R,4R,5S,6S)-5-hydroxy-4-methoxy-4,6-dimethyloxan-2-yl]oxy}-3,5,8,10,12,14-hexamethyl-15-oxo-1-oxa-6-azacyclopentadecan-6-yl]-8-oxooctyl})phosphoniumhexafluorophosphate(V) [Example 4] | 87.7 |
| CC[C@H]1OC(=O)[C@H](C)[C@@H](O[C@H]2C[C@@](C)(OC)[C@@H](O)[C@H](C)O2)[C@H](C)[C@@H](O[C@@H]2O[C@H](C)C[C@H](N(C)C)[C@H]2O)[C@](C)(O)C[C@@H](C)CN(C(=O)CCCCCCC[P+](c2ccccc2-c2c(OC(C)C)cccc2OC(C)C)(C2CCCCC2)C2CCCCC2)[C@H](C)[C@@H](O)[C@]1(C)O [Example 6, [2′,6′-bis(propan-2-yloxy)-[1,1′-biphenyl]-2-yl]dicyclohexyl{8-[(2R,3S,4R,5R,8R,10R,11R,12S,13S,14R)-11-{[(2S,3R,4S,6R)-4-(dimethylamino)-3-hydroxy-6-methyloxan-2-yl]oxy}-2-ethyl-3,4,10-trihydroxy-13-{[(2R,4R,5S,6S)-5-hydroxy-4-methoxy-4,6-dimethyloxan-2-yl]oxy}-3,5,8,10,12,14-hexamethyl-15-oxo-1-oxa-6-azacyclopentadecan-6-yl]-8-oxooctyl}phosphonium hexafluorophosphate(V)] | 4 |
| CC[C@H]1OC(=O)[C@H](C)[C@@H](O[C@H]2C[C@@](C)(OC)[C@@H](O)[C@H](C)O2)[C@H](C)[C@@H](O[C@@H]2O[C@H](C)C[C@H](N(C)C)[C@H]2O)[C@](C)(O)C[C@@H](C)CN(C(=O)CCCCCCCCCCC[P+](C)(C)C)[C@H](C)[C@@H](O)[C@]1(C)O.[Cl-] [Example 24, {12-[(2R,3S,4R,5R,8R,10R,11R,12S,13S,14R)-11-{[(2S,3R,4S,6R)-4-(dimethylamino)-3-hydroxy-6-methyloxan-2-yl]oxy}-2-ethyl-3,4,10-trihydroxy-13-{[(2R,4R,5S,6S)-5-hydroxy-4-methoxy-4,6-dimethyloxan-2-yl]oxy}-3,5,8,10,12,14-hexamethyl-15-oxo-1-oxa-6-azacyclopentadecan-6-yl]-12-oxododecyl}trimethylphosphonium chloride] | 140 |
| CC[C@H]1OC(=O)[C@H](C)[C@@H](O[C@H]2C[C@@](C)(OC)[C@@H](O)[C@H](C)O2)[C@H](C)[C@@H](O[C@@H]2O[C@H](C)C[C@H](N(C)C)[C@H]2O)[C@](C)(O)C[C@@H](C)CN(C(=O)CCCCCCC[P+](c2ccc(OC)cc2)(c2ccc(OC)cc2)c2ccc(OC)cc2)[C@H](C)[C@@H](O)[C@]1(C)O.F[P-](F)(F)(F)(F)F [Example 5, {8-[(2R,3S,4R,5R,8R,10R,11R,12S,13S,14R)-11-{[(2S,3R,4S,6R)-4-(dimethylamino)-3-hydroxy-6-methyloxan-2-yl]oxy}-2-ethyl-3,4,10-trihydroxy-13-{[(2R,4R,5S,6S)-5-hydroxy-4-methoxy-4,6-dimethyloxan-2-yl]oxy}-3,5,8,10,12,14-hexamethyl-15-oxo-1-oxa-6-azacyclopentadecan-6-yl]-8-oxooctyl}tris(4-methoxyphenyl)phosphoniumhexafluorophosphate(V)] | 7.8 |
| CC[C@H]1OC(=O)[C@H](C)[C@@H](O[C@H]2C[C@@](C)(OC)[C@@H](O)[C@H](C)O2)[C@H](C)[C@@H](O[C@@H]2O[C@H](C)C[C@H](N(C)C)[C@H]2O)[C@](C)(O)C[C@@H](C)CN(C(=O)CCCCCCC[P+](C2CCCCC2)(C2CCCCC2)C2CCCCC2)[C@H](C)[C@@H](O)[C@]1(C)O [Example 7, tricyclohexyl({8-[(2R,3S,4R,5R,8R,10R,11R,12S,13S,14R)-11-{[(2S,3R,4S,6R)-4-(dimethylamino)-3-hydroxy-6-methyloxan-2-yl]oxy}-2-ethyl-3,4,10-trihydroxy-13-{[(2R,4R,5S,6S)-5-hydroxy-4-methoxy-4,6-dimethyloxan-2-yl]oxy}-3,5,8,10,12,14-hexamethyl-15-oxo-1-oxa-6-azacyclopentadecan-6-yl]-8-oxooctyl})phosphonium hexafluorophosphate(V)] | 75.3 |
| CC[C@H]1OC(=O)[C@H](C)[C@@H](O[C@H]2C[C@@](C)(OC)[C@@H](O)[C@H](C)O2)[C@H](C)[C@@H](O[C@@H]2O[C@H](C)C[C@H](N(C)C)[C@H]2OC(C)=O)[C@](C)(O)C[C@@H](C)CN(C)[C@H](C)[C@@H](OC(=O)NCCCCCCCCCC[P+](C)(C)c2ccccc2)[C@]1(C)O.[Br-] [Example 38, (2S,3R,4S,6R)-2-{[(2R,3R,4R,5R,8R,10R,11R,12S,13S,14R)-4-[({10-[dimethyl(phenyl)phosphoniumyl]decyl}carbamoyl)oxy]-2-ethyl-3,10-dihydroxy-13-{[(2R,4R,5S,6S)-5-hydroxy-4-methoxy-4,6-dimethyloxan-2-yl]oxy}-3,5,6,8,10,12,14-heptamethyl-15-oxo-1-oxa-6-azacyclopentadecan-11-yl]oxy}-4-(dimethylamino)-6-methyloxan-3-yl acetate bromide] | 135 |
| CC[C@H]1OC(=O)[C@H](C)[C@@H](O[C@H]2C[C@@](C)(OC)[C@@H](O)[C@H](C)O2)[C@H](C)[C@@H](O[C@@H]2O[C@H](C)C[C@H](N(C)C)[C@H]2O)[C@](C)(O)C[C@@H](C)CN(CCCCCCCCCC[P+](c2ccc(OC)cc2)(c2ccc(OC)cc2)c2ccc(OC)cc2)[C@H](C)[C@@H](O)[C@]1(C)O.[I-] [Example 15] | 16.6 |
| CC[C@H]1OC(=O)[C@H](C)[C@@H](O[C@H]2C[C@@](C)(OC)[C@@H](O)[C@H](C)O2)[C@H](C)[C@@H](O[C@@H]2O[C@H](C)C[C@H](N(C)C)[C@H]2O)[C@](C)(O)C[C@@H](C)CN(C(=O)CCCCCCC[P+](c2ccccc2)(c2ccccc2)c2ccccc2-c2ccccc2)[C@H](C)[C@@H](O)[C@]1(C)O [Example 18, {[1,1′-biphenyl]-2-yl}({8-[(2R,3S,4R,5R,8R,10R,11R,12S,13S,14R)-11-{[(2S,3R,4S,6R)-4-(dimethylamino)-3-hydroxy-6-methyloxan-2-yl]oxy}-2-ethyl-3,4,10-trihydroxy-13-{[(2R,4R,5S,6S)-5-hydroxy-4-methoxy-4,6-dimethyloxan-2-yl]oxy}-3,5,8,10,12,14-hexamethyl-15-oxo-1-oxa-6-azacyclopentadecan-6-yl]-8-oxooctyl})diphenylphosphonium hexafluorophosphate(V)] | 7.7 |
| CC[C@H]1OC(=O)[C@H](C)[C@@H](O[C@H]2C[C@@](C)(OC)[C@@H](O)[C@H](C)O2)[C@H](C)[C@@H](O[C@@H]2O[C@H](C)C[C@H](N(C)C)[C@H]2O)[C@](C)(O)C[C@@H](C)CN(CCCCCC[P+](C2CCCCC2)(C2CCCCC2)C2CCCCC2)[C@H](C)[C@@H](O)[C@]1(C)O.[I-] [Example 9] | 70.9 |
| CC[C@H]1OC(=O)[C@H](C)[C@@H](O[C@H]2C[C@@](C)(OC)[C@@H](O)[C@H](C)O2)[C@H](C)[C@@H](O[C@@H]2O[C@H](C)C[C@H](N(C)C)[C@H]2O)[C@](C)(O)C[C@@H](C)CN(C(=O)CCCCCCC[P+](c2ccccc2)(c2ccccc2)c2cnn(C)c2)[C@H](C)[C@@H](O)[C@]1(C)O.[Cl-] [Example 27, {8-[(2R,3S,4R,5R,8R,10R,11R,12S,13S,14R)-11-{[(2S,3R,4S,6R)-4-(dimethylamino)-3-hydroxy-6-methyloxan-2-yl]oxy}-2-ethyl-3,4,10-trihydroxy-13-{[(2R,4R,5S,6S)-5-hydroxy-4-methoxy-4,6-dimethyloxan-2-yl]oxy}-3,5,8,10,12,14-hexamethyl-15-oxo-1-oxa-6-azacyclopentadecan-6-yl]-8-oxooctyl}(1-methyl-1H-pyrazol-4-yl)diphenylphosphonium chloride] | 123 |
| CC[C@H]1OC(=O)[C@H](C)[C@@H](O[C@H]2C[C@@](C)(OC)[C@@H](O)[C@H](C)O2)[C@H](C)[C@@H](O[C@@H]2O[C@H](C)C[C@H](N(C)C)[C@H]2O)[C@](C)(O)C[C@@H](C)CN(C(=O)CCCCCCCCCCC[P+](c2ccccc2)(c2ccccc2)c2cnn(C)c2)[C@H](C)[C@@H](O)[C@]1(C)O.[Cl-] [Example 28, {12-[(2R,3S,4R,5R,8R,10R,11R,12S,13S,14R)-11-{[(2S,3R,4S,6R)-4-(dimethylamino)-3-hydroxy-6-methyloxan-2-yl]oxy}-2-ethyl-3,4,10-trihydroxy-13-{[(2R,4R,5S,6S)-5-hydroxy-4-methoxy-4,6-dimethyloxan-2-yl]oxy}-3,5,8,10,12,14-hexamethyl-15-oxo-1-oxa-6-azacyclopentadecan-6-yl]-12-oxododecyl}(1-methyl-1H-pyrazol-4-yl)diphenylphosphonium chloride] | 16 |
